This note sets out measurements from PMC5018213 (Journal of medicinal chemistry, 2016).

The term inhibition denotes the percentage by which the read-out fell short of the control. As usually defined, the IC50 is the midpoint of a concentration-inhibition curve.

Data set [1] has as its target T1, human PCFT (Homo sapiens, UniProt Q96NT5).
T1 sequence (Q96NT5 1-459): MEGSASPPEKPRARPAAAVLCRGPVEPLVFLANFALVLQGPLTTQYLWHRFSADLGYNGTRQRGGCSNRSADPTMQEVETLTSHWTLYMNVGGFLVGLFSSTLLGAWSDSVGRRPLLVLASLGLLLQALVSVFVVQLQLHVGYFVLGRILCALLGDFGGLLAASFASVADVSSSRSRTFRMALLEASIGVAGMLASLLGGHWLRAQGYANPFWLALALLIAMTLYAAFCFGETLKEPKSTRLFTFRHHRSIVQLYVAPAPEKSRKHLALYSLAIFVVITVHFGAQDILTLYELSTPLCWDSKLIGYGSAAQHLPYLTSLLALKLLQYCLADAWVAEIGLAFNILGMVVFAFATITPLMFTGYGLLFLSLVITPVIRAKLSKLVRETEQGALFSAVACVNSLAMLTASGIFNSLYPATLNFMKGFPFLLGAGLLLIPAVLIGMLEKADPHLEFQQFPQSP
In words: PCFT transport competition, [3H]MTX uptake in R2/PCFT4 CHO cells. The following applies: for inhibition at 1 µM / inhibition at 10 µM: pH 5.5, read-out: Inhibition of [3H]MTX uptake; for Ki for PCFT [3H]MTX transport inhibition, fold higher than for PMX: pH 5.5, Dixon analysis. Type of data set: cell-based.

The target of data set [2] is FRα (RT16 CHO cells) (Homo sapiens, UniProt P15328). In words: FR binding assay, [3H]folic acid competition in RT16 cells. The following applies: folic acid = 1.
FRα (RT16 CHO cells), sequence (P15328 25-257): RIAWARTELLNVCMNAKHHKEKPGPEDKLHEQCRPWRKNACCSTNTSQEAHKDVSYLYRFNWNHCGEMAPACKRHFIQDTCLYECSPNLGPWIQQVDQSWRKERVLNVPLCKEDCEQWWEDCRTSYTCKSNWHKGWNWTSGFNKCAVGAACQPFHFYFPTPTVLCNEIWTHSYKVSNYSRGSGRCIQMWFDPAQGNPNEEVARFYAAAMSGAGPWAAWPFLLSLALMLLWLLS
The target of data set [3] is FRβ (D4 CHO cells) (Homo sapiens, UniProt P14207). In words: FR binding assay, [3H]folic acid competition in D4 cells. The following applies: folic acid = 1.
FRβ (D4 CHO cells), sequence (P14207 17-255): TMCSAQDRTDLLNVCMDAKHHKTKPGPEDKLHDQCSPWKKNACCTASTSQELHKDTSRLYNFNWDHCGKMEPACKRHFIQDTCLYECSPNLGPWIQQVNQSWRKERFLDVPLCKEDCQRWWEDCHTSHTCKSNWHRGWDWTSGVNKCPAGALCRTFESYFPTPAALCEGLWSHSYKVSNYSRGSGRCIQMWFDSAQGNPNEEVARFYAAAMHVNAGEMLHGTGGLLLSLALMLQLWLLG
For data set [4], the system named is KB human tumor cells (express RFC, FRα, and PCFT). Type of data set: cell-based.
Data set [5] deals with CHO subline engineered to express human RFC (PC43-10). Nature of the data set: Proliferation assay, RFC-expressing PC43-10 CHO cells. As to conditions: PC43-10, 96 h, read-out: IC50 PC43-10 (RFC).
The target of data set [6] is T2, human GARFTase (Homo sapiens, UniProt P22102).
T2 sequence (P22102 810-1010 limits assumed): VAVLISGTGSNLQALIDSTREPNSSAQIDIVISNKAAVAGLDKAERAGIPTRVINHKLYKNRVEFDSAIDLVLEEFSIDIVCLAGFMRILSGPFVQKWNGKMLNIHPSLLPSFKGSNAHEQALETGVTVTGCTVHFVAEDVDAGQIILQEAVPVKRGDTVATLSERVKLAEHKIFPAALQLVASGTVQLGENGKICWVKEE
Type of data set: biochemical. As to conditions: from Ki values, Table 2.

Data set [7] concerns IGROV1 ovarian tumor xenografts. In words: In vivo efficacy trial with IGROV1 xenografts in SCID mice. The following applies: folate-deficient diet.

Molecules are shown by their SMILES. Where two headings read alike, the source gives them in different places. Bounds are passed on as bounds.

As to `Nc1nc2[nH]cc(CCc3ccc(C(=O)N[C@@H](CCC(=O)O)C(=O)O)cc3)c2c(=O)[nH]1` [PMX, pemetrexed], in data set [1], the inhibition at 1 µM is not below 90% and the inhibition at 10 µM was not below 90%.

As for `Nc1nc2[nH]c(CCSc3ccc(C(=O)N[C@@H](CCC(=O)O)C(=O)O)cc3)cc2c(=O)[nH]1` [Compound 9, (4-{[2-(2-amino-4-oxo-4,7-dihydro-3H-pyrrolo[2,3-d]pyrimidin-6-yl)ethyl]thio}benzoyl)-L-glutamic acid], the “Relative binding affinity, % of the affinity for folic acid, FRα” value (from here on “Relative binding affinity, % … FRα”) in data set [2] was 60–110%. In data set [3], the “Relative binding affinity, % of the affinity for folic acid, FRβ” value (shortened to “Relative binding affinity, % … FRβ”) is listed as 60–110%.

On to `Nc1nc2[nH]c(CCCc3ccc(C(=O)N[C@@H](CCC(=O)O)C(=O)O)s3)cc2c(=O)[nH]1` [Compound 3], for which the IC50 in data set [4] (read-out: IC50 KB) stood at 0.26 nM; in data set [4] (read-out: IC50 KB (+FA)), 101 nM; in data set [5], 101 nM.

In the case of `Nc1nc2[nH]c(CCNc3ccc(C(=O)N[C@@H](CCC(=O)O)C(=O)O)cc3)cc2c(=O)[nH]1` [Compound 4, (4-{[2-(2-Amino-4-oxo-4,7-dihydro-3H-pyrrolo[2,3-d]pyrimidin-6-yl)ethyl]amino}benzoyl)-L-glutamic acid], the “Relative binding affinity, % … FRα” value in data set [2] is recorded as 60–110%. In data set [3], the “Relative binding affinity, % … FRβ” value is on record as 60–110%. Further, the “Improvement in GARFTase inhibitory potency over C (1)” value in data set [6] is recorded as “approximately 3 fold”. Further, in data set [7] (384 mg/kg total dose), the “T-C (tumor growth delay)” value turned out to be 9 days and the log10 kill came to 1.4. Further, the “Highest non-toxic total dose” value in data set [7] (Q3dx4 iv) was 600 mg/kg. For the same compound, the “Body weight loss (nadir)” value in data set [7] (during treatment, reversible) is recorded as 17.0–17.3%.

Regarding `CC(=O)N(CCc1cc2c(=O)[nH]c(N)nc2[nH]1)c1ccc(C(=O)N[C@@H](CCC(=O)O)C(=O)O)cc1` [Compound 6, (4-{N-[2-(2-amino-4-oxo-4,7-dihydro-3H-pyrrolo[2,3-d]pyrimidin-6-yl)ethyl]acetamido}benzoyl)-L-glutamic acid], the “Ki for PCFT [3H]MTX transport inhibition, fold higher than for PMX” value in data set [1] is on record as ~ 18 fold.

Turning to `Nc1nc2[nH]c(CCOc3ccc(C(=O)N[C@@H](CCC(=O)O)C(=O)O)cc3)cc2c(=O)[nH]1` [Compound 8, {4-[2-(2-amino-4-oxo-4,7-dihydro-3H-pyrrolo[2,3-d]pyrimidin-6-yl)ethoxy]benzoyl}-L-glutamic acid], the “Relative binding affinity, % … FRα” value in data set [2] is listed as 60–110%. Moreover, the “Relative binding affinity, % … FRβ” value in data set [3] is listed as 60–110%. Besides, the “Ki for PCFT [3H]MTX transport inhibition, fold higher than for PMX” value in data set [1] was ~ 7 fold. The “Improvement in GARFTase inhibitory potency over C (1)” value in data set [6] is “approximately 3 fold”.

Turning to `Nc1nc2[nH]c(CCCc3ccc(C(=O)N[C@@H](CCC(=O)O)C(=O)O)cc3)cc2c(=O)[nH]1` [Compound 1], in data set [1], the inhibition at 1 µM lay within 30 to 60% and the inhibition at 10 µM is 80 to 90%. Besides, in data set [5], the IC50 was 649 nM.
